Data as given in paper PMC11284788, “NN1213 – A Potent, Long-Acting, and Selective Analog of Human Amylin” (Journal of Medicinal Chemistry, 2024).

Columns and labels:
cAMY1R = experiment: Species-specific cAMP assay, cAMY1R; conditions: for Ratio CTR/AMY1R (canine, functional): ratio of cAMP EC50 values, canine receptors
in vivo [1] = conditions: male, beagle, dog, iv
cAMY3R = experiment: Whole-cell competition binding, cAMY3R; conditions: IC50 for the CTR divided by that of the AMYR, canine receptors
beagle dogs = experiment: Acute dog food intake assay
hAMY3R = target: T1, hAMY3R (Homo sapiens, UniProt O60896+P30988); experiment: Species-specific cAMP assay, hAMY3R; conditions: ratio of cAMP EC50 values, human receptors
T1 sequence (P30988 25-474): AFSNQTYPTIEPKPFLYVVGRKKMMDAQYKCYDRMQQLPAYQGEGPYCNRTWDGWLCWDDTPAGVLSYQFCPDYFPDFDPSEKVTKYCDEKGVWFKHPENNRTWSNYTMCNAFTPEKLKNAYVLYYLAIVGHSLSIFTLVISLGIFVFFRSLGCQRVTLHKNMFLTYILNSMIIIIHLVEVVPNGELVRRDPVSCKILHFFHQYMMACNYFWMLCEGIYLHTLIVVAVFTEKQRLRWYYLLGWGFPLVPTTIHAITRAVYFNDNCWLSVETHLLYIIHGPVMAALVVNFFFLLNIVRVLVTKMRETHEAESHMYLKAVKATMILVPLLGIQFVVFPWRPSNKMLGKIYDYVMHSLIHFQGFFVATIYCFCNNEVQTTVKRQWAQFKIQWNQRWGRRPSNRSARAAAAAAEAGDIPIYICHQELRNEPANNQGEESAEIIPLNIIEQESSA
T1 sequence (O60896 24-148 partner): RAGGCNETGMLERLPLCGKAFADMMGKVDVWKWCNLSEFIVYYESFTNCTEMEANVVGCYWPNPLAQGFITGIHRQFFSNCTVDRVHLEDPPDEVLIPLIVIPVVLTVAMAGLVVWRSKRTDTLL

in vivo [2] = conditions: female, New Zealand white, rabbit, iv
Protocol: (§1) Blood samples were collected at fixed time points postdose to determine full PK profiles. Plasma samples were analyzed by ELISA. Plasma concentration–time profiles were analyzed by noncompartmental analysis.
Rabbits: Female rabbits (New Zealand white, Charles River; 21–23 weeks; 2.5–3.5 kg) were group-
housed (10 per cage) in normal day–night rhythm from arrival and had free access to food and water.
The rabbits were treated against coccidiosis during their 5-week acclimation period upon arrival. Iv
dosing was performed as a bolus injection into an ear vein with a dosing volume of 0.1 mL/kg. The
dosing solution was at room temperature before injection. Venous blood sampling was performed
directly through puncture of an ear vein using a needle. A full plasma concentration–time profile was
obtained from each animal.
Blood (300 µL) was collected directly into test
tubes containing EDTA buffer (Microvette CB 300 K2E). Samples were kept on wet ice until
centrifugation (10 min, 4 °C, 3000 rpm). Plasma (100 µL) was transferred immediately to Micronic
tubes and kept at –20 °C until analysis.
Plasma analysis: Plasma samples were analyzed by a commercially available kit (Millipore, Human
Amylin ELISA, cat. #EZHA-52-K). […]
was applied and the plate was read on a fluorescent reader with an excitation/emission wavelength of
samples. The lower limit of quantification (LLOQ) was 100–500 pM.

in vivo [3] = conditions: male, Sprague-Dawley, rat, iv
Protocol: as §1
Pharmacokinetic Evaluation. Rats: Male Sprague-Dawley rats (Taconic, Europe; body weight
approximately 400 g) were group-housed under controlled temperature conditions (20 °C ± 2 °C).
Blood was collected from the sublingual vein and rats were acclimated to handling on three separate
occasions prior to blood collection.
the tail vein of five rats. Sc injections were performed in the neck of another group of five rats. The
dosing volume was 2 mL/kg.
collected into test tubes containing EDTA for stabilization and kept on ice until centrifugation. Each
blood sample was 100 µL. Plasma was separated from whole blood by centrifugation and was stored at
–20 °C or lower until analysis.

DIO rats = experiment: DIO rat weight loss assay; assay type: in vivo; conditions: for Absolute body weight Day 21: mean ± SEM; for reduction in body weight relative to baseline: 21 days, n = 8/group
Protocol: The ability of NN1213 to reduce body weight was tested in DIO rats fed an HFD. Rats were dosed once daily sc with either vehicle or NN1213 (n = 8–10 per group). Food intake and body weight were measured daily on individually housed rats. […] Body fat and lean mass are expressed as changes from baseline.
VetXX, Specific CCD, Dechra, UK).
eaten within 30 min. […] In figure 4, mean accumulated food
rats were assessed in DIO rats.
controlled temperature conditions (22 °C).
Pharmacokinetic Evaluation.
Species n administration (nmol/kg) (h)

in vivo [4] = conditions: male, Göttingen, minipig, iv

CC[C@H](C)[C@H](NC(=O)[C@H](C)NC(=O)CNC(=O)[C@H](Cc1ccccc1)NC(=O)[C@H](CC(N)=O)NC(=O)[C@@H]1CCCN1C(=O)[C@H](CO)NC(=O)[C@H](CO)NC(=O)[C@H](Cc1c[nH]cn1)NC(=O)[C@H](CCCNC(=N)N)NC(=O)[C@H](CC(C)C)NC(=O)[C@H](Cc1ccccc1)NC(=O)[C@H](CC(=O)O)NC(=O)[C@H](C)NC(=O)[C@H](CC(C)C)NC(=O)[C@H](CCCNC(=N)N)NC(=O)[C@H](CCC(N)=O)NC(=O)[C@@H](NC(=O)[C@H](C)NC(=O)[C@@H]1CSSC[C@H](NC(=O)[C@@H](N)CCCCNC(=O)CC[C@H](NC(=O)CC[C@H](NC(=O)CCCCCCCCCCCCCCCCCCC(=O)O)C(=O)O)C(=O)O)C(=O)N[C@@H](CC(N)=O)C(=O)N[C@@H]([C@@H](C)O)C(=O)N[C@@H](C)C(=O)N[C@@H]([C@@H](C)O)C(=O)N1)[C@@H](C)O)C(=O)N1CCC[C@H]1C(=O)N[C@@H](CO)C(=O)N[C@@H](CO)C(=O)N[C@H](C(=O)N[C@@H](CC(N)=O)C(=O)N[C@H](C(=O)NCC(=O)N[C@@H](CO)C(=O)N[C@@H](CCCNC(=N)N)C(=O)N[C@H](C(=O)N[C@@H](Cc1ccc(O)cc1)C(N)=O)[C@@H](C)O)C(C)C)[C@@H](C)O [NN1213]
cAMY1R pEC50 (cAMY1R; cAMP HTRF, transiently transfected BHK cells, 30 min room temperature, five experiments): 9.87 | Ratio CTR/AMY1R (canine, functional) (cAMY1R): 3 | Ratio CTR/AMY1R (canine, functional) (cAMY1R; listed as NN1213/peptide 21): 2 | half-life (in vivo [1]): 76 h | Ratio CTR/AMY3R (canine, binding) (cAMY3R): 40 | food intake reduction, first 48 h (beagle dogs; single sc administration 300 nmol/kg, four meals over 48 h): 90% | effect on appetite (beagle dogs; single sc dose 3 nmol/kg): did not affect appetite | duration of appetite suppression (beagle dogs; single sc dose 30 nmol/kg): at least 7 days | tolerability (discomfort, vomiting) (beagle dogs; single sc dose ranging from 3 to 300 nmol/kg): not associated with any signs of discomfort in the dogs and no vomiting | Ratio CTR/AMY3R (human, functional) (hAMY3R): 51 | half-life (in vivo [2]): 49 h | half-life (in vivo [3]): 24 h | Absolute body weight Day 21 (DIO rats; 3 µg/kg (0.7 nmol/kg) sc once daily): 705.5 ± 38.4 g | Absolute body weight Day 21 (DIO rats; 10 µg/kg (2.2 nmol/kg) sc once daily): 664.4 ± 19.3 g | Absolute body weight Day 21 (DIO rats; 30 µg/kg (6.6 nmol/kg) sc once daily): 682.4 ± 27.7 g | Absolute body weight Day 21 (DIO rats; 100 µg/kg (22 nmol/kg) sc once daily): 667.8 ± 11.9 g | body weight lost after 21 days (DIO rats; high-dose group (22 nmol/kg) sc once daily): 69.6 ± 7.5 g | body weight lost after 21 days (DIO rats; low-dose group 0.7 nmol/kg sc once daily): 32.0 ± 3.6 g | reduction in body weight relative to baseline (DIO rats; sc once daily 0.7 nmol/kg): 4.7% | reduction in body weight relative to baseline (DIO rats; sc once daily 2.2, 6.6, 22 nmol/kg doses): 8.7–9.3% | half-life (in vivo [4]): 116 h
